Measurements as given in PMC11672637, “7-O-Carboxylic Acid-Substituted 3-O-Alkyl Difluoroquercetin; An Aztreonam-Potentiating Agent Against Carbapenemase-Producing Pseudomonas aeruginosa Through Simultaneous Inhibition of Metallo-β-Lactamase and Efflux Pump” (Antibiotics, 2024).
≈ marks a conversion by molar mass, not a printed value. Like-named read-outs stand apart in the source and are kept apart here.

How the values were obtained:
Type in all cases: cell-based, P. aeruginosa
[1] = test system: PA-028, blaNDM; experiment: MIC / checkerboard with ATM; conditions: for MIC: Pseudomonas aeruginosa, read-out: MIC of ATM with 5, PA-028
[2] = test system: ATM-Susceptible CPPA (n = 11); experiment: MIC distribution over clinical isolates; conditions: Pseudomonas aeruginosa
[3] = test system: All CPPA (n = 26); experiment: MIC distribution over clinical isolates; conditions: for inhibition at 1 µg/mL / inhibition at 2 µg/mL / inhibition at 4 µg/mL / inhibition at 8 µg/mL / inhibition at 16 µg/mL / inhibition at 32 µg/mL / inhibition at 64 µg/mL / MIC50 / MIC90: Pseudomonas aeruginosa; for inhibition at 1 µg/mL: read-out: Cumulative % inhibition by ATM, 5 at 1 mg/L; for inhibition at 2 µg/mL: read-out: Cumulative % inhibition by ATM, 5 at 2 mg/L; for inhibition at 4 µg/mL: read-out: Cumulative % inhibition by ATM, 5 at 4 mg/L; for inhibition at 8 µg/mL: read-out: Cumulative % inhibition by ATM, 5 at 8 mg/L; for inhibition at 16 µg/mL: read-out: Cumulative % inhibition by ATM, 5 at 16 mg/L; for inhibition at 32 µg/mL: read-out: Cumulative % inhibition by ATM, 5 at 32 mg/L; for inhibition at 64 µg/mL: read-out: Cumulative % inhibition by ATM, 5 at 64 mg/L
[4] = test system: PA-044, blaNDM; experiment: MIC / checkerboard with ATM; conditions: for MIC: Pseudomonas aeruginosa, read-out: MIC of ATM with 5, PA-044
[5] = read-out: MIC50 of ATM, 5 at 1 mg/L
[6] = read-out: MIC50 of ATM, 5 at 2 mg/L
[7] = read-out: MIC50 of ATM, 5 at 4 mg/L
[8] = read-out: MIC50 of ATM, 5 at 8 mg/L
[9] = read-out: MIC50 of ATM, 5 at 16 mg/L
[10] = read-out: MIC50 of ATM, 5 at 32 mg/L
[11] = read-out: MIC50 of ATM, 5 at 64 mg/L
[12] = read-out: MIC90 of ATM, 5 at 1 mg/L
[13] = read-out: MIC90 of ATM, 5 at 2 mg/L
[14] = read-out: MIC90 of ATM, 5 at 4 mg/L
[15] = read-out: MIC90 of ATM, 5 at 8 mg/L
[16] = read-out: MIC90 of ATM, 5 at 16 mg/L
[17] = read-out: MIC90 of ATM, 5 at 32 mg/L
[18] = read-out: MIC90 of ATM, 5 at 64 mg/L

`CC(C)(C)CCOc1c(-c2ccc(F)c(F)c2)oc2cc(OCC(=O)O)cc(O)c2c1=O` [Compound 5, 2-((2-(3,4-Difluorophenyl)-3-(3,3-dimethylbutoxy)-5-hydroxy-4-oxo-4H-chromen-7-yl)oxy)acetic Acid] was tested, and the “Activity (FICI class)” value ([1]; PA-028) was “S (S (Synergy, FICI ≤ 0.5))”, the “Concentrations of ATM and 5 at lowest FICI (ATM/5)” value ([1]; PA-028) was 2/2 and the “Lowest FICI (ATM/5)” value ([1]; PA-028) was 0.25. The “Susceptibility to ATM” value ([1]; PA-028, ATM/5) was “S (S (sensitive, MIC ≤ 8 mg/L))”, the “FD (fold decrease in MIC of ATM with 5)” value ([1]; PA-028, lowest-FICI combination) was 4 and the MIC ([1]; 5 at 1 mg/L) was 4 µg/mL. It also gave an MIC ([1]; 5 at 2 mg/L) of 2 µg/mL, an MIC ([1]; 5 at 4 mg/L) of 2 µg/mL and an MIC ([1]; 5 at 8 mg/L) of 2 µg/mL. The MIC ([1]; 5 at 16 mg/L) was 1 µg/mL, the MIC ([1]; 5 at 32 mg/L) was 1 µg/mL and the MIC ([1]; 5 at 64 mg/L) was 1 µg/mL. For the same compound, the MIC50 [2, 5] was 4 µg/mL (≈ 8.92 µM), the MIC50 [2, 6] was 2 µg/mL (≈ 4.46 µM) and the MIC50 [2, 7] was 2 µg/mL (≈ 4.46 µM). For the same compound, the MIC50 [2, 8] was 2 µg/mL (≈ 4.46 µM), the MIC50 [2, 9] was 1 µg/mL (≈ 2.23 µM) and the MIC50 [2, 10] was 1 µg/mL (≈ 2.23 µM). The MIC50 [2, 11] was 1 µg/mL (≈ 2.23 µM), the MIC90 [2, 12] was 8 µg/mL (≈ 17.8 µM) and the MIC90 [2, 13] was 4 µg/mL (≈ 8.92 µM). The MIC90 [2, 14] was 4 µg/mL (≈ 8.92 µM), the MIC90 [2, 15] was 2 µg/mL (≈ 4.46 µM) and the MIC90 [2, 16] was 2 µg/mL (≈ 4.46 µM). The MIC90 [2, 17] was 2 µg/mL (≈ 4.46 µM), the MIC90 [2, 18] was 2 µg/mL (≈ 4.46 µM) and the “Clinical strains sensitized to ATM (MIC ≤ 8 mg/L) by combination with 5” value [3] was 25 out of 26. The “CPPA isolates in which ATM/5 combination showed synergistic effects” value ([3]; 22 out of 26 isolates) was 85%, the inhibition at 1 µg/mL ([3]; ATM 0.5 mg/L) was 0% and the inhibition at 1 µg/mL ([3]; ATM 1 mg/L) was 4%. For the same compound, the inhibition at 1 µg/mL ([3]; ATM 2 mg/L) was 19%, the inhibition at 1 µg/mL ([3]; ATM 4 mg/L) was 35% and the inhibition at 1 µg/mL ([3]; ATM 8 mg/L) was 46%. The inhibition at 1 µg/mL ([3]; ATM 16 mg/L) was 81%, the inhibition at 1 µg/mL ([3]; ATM 32 mg/L) was 100% and the inhibition at 1 µg/mL ([3]; ATM 64 mg/L) was 100%. The inhibition at 2 µg/mL ([3]; ATM 0.5 mg/L) was 4%, the inhibition at 2 µg/mL ([3]; ATM 1 mg/L) was 4% and the inhibition at 2 µg/mL ([3]; ATM 2 mg/L) was 23%. It also gave an inhibition at 2 µg/mL ([3]; ATM 4 mg/L) of 38%, an inhibition at 2 µg/mL ([3]; ATM 8 mg/L) of 46% and an inhibition at 2 µg/mL ([3]; ATM 16 mg/L) of 92%. The inhibition at 2 µg/mL ([3]; ATM 32 mg/L) was 100%, the inhibition at 2 µg/mL ([3]; ATM 64 mg/L) was 100% and the inhibition at 4 µg/mL ([3]; ATM 0.5 mg/L) was 4%. The inhibition at 4 µg/mL ([3]; ATM 1 mg/L) was 8%, the inhibition at 4 µg/mL ([3]; ATM 2 mg/L) was 31% and the inhibition at 4 µg/mL ([3]; ATM 4 mg/L) was 46%. The inhibition at 4 µg/mL ([3]; ATM 8 mg/L) was 81%, the inhibition at 4 µg/mL ([3]; ATM 16 mg/L) was 100% and the inhibition at 4 µg/mL ([3]; ATM 32 mg/L) was 100%. For the same compound, the inhibition at 4 µg/mL ([3]; ATM 64 mg/L) was 100%, the inhibition at 8 µg/mL ([3]; ATM 0.5 mg/L) was 4% and the inhibition at 8 µg/mL ([3]; ATM 1 mg/L) was 19%. It also gave an inhibition at 8 µg/mL ([3]; ATM 2 mg/L) of 38%, an inhibition at 8 µg/mL ([3]; ATM 4 mg/L) of 69% and an inhibition at 8 µg/mL ([3]; ATM 8 mg/L) of 88%. It also gave an inhibition at 8 µg/mL ([3]; ATM 16 mg/L) of 100%, an inhibition at 8 µg/mL ([3]; ATM 32 mg/L) of 100% and an inhibition at 8 µg/mL ([3]; ATM 64 mg/L) of 100%. The inhibition at 16 µg/mL ([3]; ATM 0.5 mg/L) was 4%, the inhibition at 16 µg/mL ([3]; ATM 1 mg/L) was 27% and the inhibition at 16 µg/mL ([3]; ATM 2 mg/L) was 50%. It also gave an inhibition at 16 µg/mL ([3]; ATM 4 mg/L) of 81%, an inhibition at 16 µg/mL ([3]; ATM 8 mg/L) of 96% and an inhibition at 16 µg/mL ([3]; ATM 16 mg/L) of 100%. For the same compound, the inhibition at 16 µg/mL ([3]; ATM 32 mg/L) was 100%, the inhibition at 16 µg/mL ([3]; ATM 64 mg/L) was 100% and the inhibition at 32 µg/mL ([3]; ATM 0.5 mg/L) was 4%. For the same compound, the inhibition at 32 µg/mL ([3]; ATM 1 mg/L) was 35%, the inhibition at 32 µg/mL ([3]; ATM 2 mg/L) was 54% and the inhibition at 32 µg/mL ([3]; ATM 4 mg/L) was 88%. For the same compound, the inhibition at 32 µg/mL ([3]; ATM 8 mg/L) was 96%, the inhibition at 32 µg/mL ([3]; ATM 16 mg/L) was 100% and the inhibition at 32 µg/mL ([3]; ATM 32 mg/L) was 100%. For the same compound, the inhibition at 32 µg/mL ([3]; ATM 64 mg/L) was 100%, the inhibition at 64 µg/mL ([3]; ATM 0.5 mg/L) was 4% and the inhibition at 64 µg/mL ([3]; ATM 1 mg/L) was 38%. The inhibition at 64 µg/mL ([3]; ATM 2 mg/L) was 58%, the inhibition at 64 µg/mL ([3]; ATM 4 mg/L) was 92% and the inhibition at 64 µg/mL ([3]; ATM 8 mg/L) was 96%. It also gave an inhibition at 64 µg/mL ([3]; ATM 16 mg/L) of 100%, an inhibition at 64 µg/mL ([3]; ATM 32 mg/L) of 100% and an inhibition at 64 µg/mL ([3]; ATM 64 mg/L) of 100%. It also gave an MIC50 [3, 5] of 16 µg/mL (≈ 35.7 µM), an MIC50 [3, 6] of 16 µg/mL (≈ 35.7 µM) and an MIC50 [3, 7] of 8 µg/mL (≈ 17.8 µM). The MIC50 [3, 8] was 4 µg/mL (≈ 8.92 µM), the MIC50 [3, 9] was 4 µg/mL (≈ 8.92 µM) and the MIC50 [3, 10] was 2 µg/mL (≈ 4.46 µM). The MIC50 [3, 11] was 2 µg/mL (≈ 4.46 µM), the MIC90 [3, 12] was 32 µg/mL (≈ 71.4 µM) and the MIC90 [3, 13] was 32 µg/mL (≈ 71.4 µM). It also gave an MIC90 [3, 14] of 16 µg/mL (≈ 35.7 µM), an MIC90 [3, 15] of 16 µg/mL (≈ 35.7 µM) and an MIC90 [3, 16] of 8 µg/mL (≈ 17.8 µM). For the same compound, the MIC90 [3, 17] was 8 µg/mL (≈ 17.8 µM), the MIC90 [3, 18] was 8 µg/mL (≈ 17.8 µM) and the “Activity (FICI class)” value ([4]; PA-044) was “S (S (Synergy, FICI ≤ 0.5))”. The “Concentrations of ATM and 5 at lowest FICI (ATM/5)” value ([4]; PA-044) was 4/8, the “Lowest FICI (ATM/5)” value ([4]; PA-044) was 0.27 and the “Minimum concentration of 5 to make sensitive to ATM” value ([4]; PA-044) was 4 mg/L. The “Susceptibility to ATM” value ([4]; PA-044, ATM/5) was “S (S (sensitive, MIC ≤ 8 mg/L))”, the “FD (fold decrease in MIC of ATM with 5)” value ([4]; PA-044, lowest-FICI combination) was 4 and the MIC ([4]; 5 at 1 mg/L) was 16 µg/mL. It also gave an MIC ([4]; 5 at 2 mg/L) of 16 µg/mL.
